PMC9851200, “Multiparameter phenotypic screening for endogenous TFEB and TFE3 translocation identifies novel chemical series modulating lysosome function” (Autophagy, 2022)

Experiments:
Type in all cases: binding
[1] = molecular target: kinases (KINOMEscan panel) (Homo sapiens, UniProt Q96J92); settings: WNK4; NEW KINOMEscan
[2] = molecular target: kinases (KINOMEscan panel) (Homo sapiens, UniProt Q96Q40)
[3] = molecular target: kinases (KINOMEscan panel) (Homo sapiens, UniProt Q13705); settings: kinase ACVR2B; NEW KINOMEscan
[4] = molecular target: kinases (KINOMEscan panel) (Homo sapiens, UniProt P42685); settings: kinase FRK; NEW KINOMEscan
[5] = molecular target: T1, kinases (KINOMEscan panel) (Homo sapiens, UniProt Q14164)
T1 sequence (Q14164 1-716): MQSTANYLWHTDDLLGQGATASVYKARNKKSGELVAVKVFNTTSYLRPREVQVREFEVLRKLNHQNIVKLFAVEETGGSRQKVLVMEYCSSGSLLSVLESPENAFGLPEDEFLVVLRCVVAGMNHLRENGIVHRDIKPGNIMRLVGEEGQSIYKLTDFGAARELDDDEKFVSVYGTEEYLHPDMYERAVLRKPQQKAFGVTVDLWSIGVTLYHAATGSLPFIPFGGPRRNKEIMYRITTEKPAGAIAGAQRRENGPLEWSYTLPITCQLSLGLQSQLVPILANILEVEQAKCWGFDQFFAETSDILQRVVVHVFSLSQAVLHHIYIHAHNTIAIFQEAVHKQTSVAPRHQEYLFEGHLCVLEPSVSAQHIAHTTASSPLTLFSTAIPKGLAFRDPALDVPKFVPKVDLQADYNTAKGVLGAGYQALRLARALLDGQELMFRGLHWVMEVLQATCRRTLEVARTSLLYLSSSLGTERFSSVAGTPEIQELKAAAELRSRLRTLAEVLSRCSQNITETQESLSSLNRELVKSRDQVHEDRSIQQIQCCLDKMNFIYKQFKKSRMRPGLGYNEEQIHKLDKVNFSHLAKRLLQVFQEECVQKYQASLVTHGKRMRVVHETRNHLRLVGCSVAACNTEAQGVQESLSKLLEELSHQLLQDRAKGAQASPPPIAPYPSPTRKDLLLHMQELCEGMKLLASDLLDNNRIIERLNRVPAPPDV

[6] = molecular target: T2, kinases (KINOMEscan panel) (Homo sapiens, UniProt P78356); settings: PIP4K2B; NEW KINOMEscan
T2 sequence (P78356 1-416): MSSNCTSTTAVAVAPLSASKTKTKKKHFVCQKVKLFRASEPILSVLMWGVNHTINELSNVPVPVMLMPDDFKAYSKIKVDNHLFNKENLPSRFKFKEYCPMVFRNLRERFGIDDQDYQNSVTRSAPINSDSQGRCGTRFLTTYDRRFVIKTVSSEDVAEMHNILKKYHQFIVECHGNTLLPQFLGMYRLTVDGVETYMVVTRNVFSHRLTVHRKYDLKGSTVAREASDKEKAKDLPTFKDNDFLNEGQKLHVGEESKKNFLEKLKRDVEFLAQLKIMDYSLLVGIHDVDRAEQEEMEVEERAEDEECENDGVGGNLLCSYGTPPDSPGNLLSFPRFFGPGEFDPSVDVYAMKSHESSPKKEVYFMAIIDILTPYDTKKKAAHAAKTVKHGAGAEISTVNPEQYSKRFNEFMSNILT

[7] = molecular target: T3, kinases (KINOMEscan panel) (Homo sapiens, UniProt Q8TF76); settings: HASPIN; NEW KINOMEscan
T3 sequence (Q8TF76 1-798): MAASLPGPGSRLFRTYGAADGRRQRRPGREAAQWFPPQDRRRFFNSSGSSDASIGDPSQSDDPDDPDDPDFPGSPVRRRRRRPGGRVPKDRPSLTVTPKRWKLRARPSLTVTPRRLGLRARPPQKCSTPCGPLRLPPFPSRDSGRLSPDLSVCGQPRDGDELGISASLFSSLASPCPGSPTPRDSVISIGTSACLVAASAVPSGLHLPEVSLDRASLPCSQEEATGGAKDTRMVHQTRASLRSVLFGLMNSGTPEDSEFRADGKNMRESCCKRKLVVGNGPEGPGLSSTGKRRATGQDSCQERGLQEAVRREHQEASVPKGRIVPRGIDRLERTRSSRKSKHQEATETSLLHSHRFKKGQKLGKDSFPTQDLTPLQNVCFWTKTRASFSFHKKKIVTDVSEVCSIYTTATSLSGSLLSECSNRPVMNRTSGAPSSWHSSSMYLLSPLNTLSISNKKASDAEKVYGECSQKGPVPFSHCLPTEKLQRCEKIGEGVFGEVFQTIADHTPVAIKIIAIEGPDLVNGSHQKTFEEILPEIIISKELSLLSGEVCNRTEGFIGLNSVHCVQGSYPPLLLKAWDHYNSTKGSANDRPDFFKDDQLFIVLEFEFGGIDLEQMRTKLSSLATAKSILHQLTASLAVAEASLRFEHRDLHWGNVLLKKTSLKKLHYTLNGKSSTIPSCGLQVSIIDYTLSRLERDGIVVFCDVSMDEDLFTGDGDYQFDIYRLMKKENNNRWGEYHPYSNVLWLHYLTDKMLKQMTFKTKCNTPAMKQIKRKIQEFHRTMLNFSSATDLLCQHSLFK

[8] = molecular target: kinases (KINOMEscan panel) (Homo sapiens, UniProt Q8NI60); settings: COQ8A; NEW KINOMEscan
[9] = molecular target: kinases (KINOMEscan panel) (Homo sapiens, UniProt Q16816); settings: PHKG1; NEW KINOMEscan
[10] = molecular target: kinases (KINOMEscan panel) (Homo sapiens, UniProt Q9Y2H9); settings: MAST1; NEW KINOMEscan
Sequence of kinases (KINOMEscan panel) (Homo sapiens, UniProt Q9Y2H9) (Q9Y2H9 whole entry): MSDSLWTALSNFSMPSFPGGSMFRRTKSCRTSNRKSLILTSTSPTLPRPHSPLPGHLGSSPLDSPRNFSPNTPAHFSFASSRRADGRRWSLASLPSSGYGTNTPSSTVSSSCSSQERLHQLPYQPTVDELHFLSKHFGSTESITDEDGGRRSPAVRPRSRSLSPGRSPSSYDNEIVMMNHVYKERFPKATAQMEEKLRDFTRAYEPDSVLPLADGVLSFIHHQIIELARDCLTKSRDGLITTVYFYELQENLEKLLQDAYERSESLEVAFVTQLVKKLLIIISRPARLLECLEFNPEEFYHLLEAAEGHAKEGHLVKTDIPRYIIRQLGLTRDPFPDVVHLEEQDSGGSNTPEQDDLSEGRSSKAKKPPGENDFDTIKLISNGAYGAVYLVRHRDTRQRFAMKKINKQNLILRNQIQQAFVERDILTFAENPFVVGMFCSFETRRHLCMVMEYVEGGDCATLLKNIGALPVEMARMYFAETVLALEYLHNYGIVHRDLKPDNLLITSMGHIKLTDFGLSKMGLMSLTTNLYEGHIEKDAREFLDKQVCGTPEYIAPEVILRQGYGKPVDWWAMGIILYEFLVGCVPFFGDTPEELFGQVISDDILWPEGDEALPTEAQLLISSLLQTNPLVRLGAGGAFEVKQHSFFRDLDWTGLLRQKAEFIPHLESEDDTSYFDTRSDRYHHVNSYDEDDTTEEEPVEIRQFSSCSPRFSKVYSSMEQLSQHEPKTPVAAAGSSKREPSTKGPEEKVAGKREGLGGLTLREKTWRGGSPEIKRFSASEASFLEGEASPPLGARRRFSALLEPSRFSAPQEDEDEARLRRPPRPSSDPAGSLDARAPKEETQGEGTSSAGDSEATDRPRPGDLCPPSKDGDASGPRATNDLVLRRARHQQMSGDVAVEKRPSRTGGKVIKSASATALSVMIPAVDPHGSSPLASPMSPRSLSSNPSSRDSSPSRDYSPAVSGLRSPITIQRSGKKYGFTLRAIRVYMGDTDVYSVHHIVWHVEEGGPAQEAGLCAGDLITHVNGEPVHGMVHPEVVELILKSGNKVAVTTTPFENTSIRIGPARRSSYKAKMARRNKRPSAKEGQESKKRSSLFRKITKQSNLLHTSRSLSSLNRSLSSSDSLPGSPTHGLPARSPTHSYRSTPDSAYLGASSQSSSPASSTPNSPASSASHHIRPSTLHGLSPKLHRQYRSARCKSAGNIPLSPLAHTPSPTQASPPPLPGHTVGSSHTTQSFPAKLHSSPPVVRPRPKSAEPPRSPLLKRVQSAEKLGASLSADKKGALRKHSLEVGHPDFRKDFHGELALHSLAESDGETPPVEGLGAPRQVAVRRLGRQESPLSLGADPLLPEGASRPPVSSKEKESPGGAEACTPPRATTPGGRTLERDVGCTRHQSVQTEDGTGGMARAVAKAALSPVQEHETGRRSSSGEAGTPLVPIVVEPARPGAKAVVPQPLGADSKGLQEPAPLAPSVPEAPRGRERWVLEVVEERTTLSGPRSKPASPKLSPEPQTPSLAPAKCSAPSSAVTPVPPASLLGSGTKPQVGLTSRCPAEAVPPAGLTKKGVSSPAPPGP

Sequence of kinases (KINOMEscan panel) (Homo sapiens, UniProt P42685) (P42685 whole entry): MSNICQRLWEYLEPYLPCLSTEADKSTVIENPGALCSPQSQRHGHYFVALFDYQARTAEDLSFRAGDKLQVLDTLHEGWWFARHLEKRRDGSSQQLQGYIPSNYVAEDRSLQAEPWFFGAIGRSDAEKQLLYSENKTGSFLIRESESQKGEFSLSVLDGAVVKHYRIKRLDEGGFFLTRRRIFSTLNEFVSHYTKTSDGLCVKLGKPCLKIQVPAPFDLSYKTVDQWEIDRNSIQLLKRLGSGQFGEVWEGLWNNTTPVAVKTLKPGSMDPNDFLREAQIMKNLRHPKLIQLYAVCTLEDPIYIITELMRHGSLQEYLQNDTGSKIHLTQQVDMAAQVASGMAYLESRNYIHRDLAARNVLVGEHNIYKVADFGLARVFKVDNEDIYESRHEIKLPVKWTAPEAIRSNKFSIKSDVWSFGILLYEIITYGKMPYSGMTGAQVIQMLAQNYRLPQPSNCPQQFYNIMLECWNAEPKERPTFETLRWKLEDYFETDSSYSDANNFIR
Sequence of kinases (KINOMEscan panel) (Homo sapiens, UniProt Q13705) (Q13705 19-512): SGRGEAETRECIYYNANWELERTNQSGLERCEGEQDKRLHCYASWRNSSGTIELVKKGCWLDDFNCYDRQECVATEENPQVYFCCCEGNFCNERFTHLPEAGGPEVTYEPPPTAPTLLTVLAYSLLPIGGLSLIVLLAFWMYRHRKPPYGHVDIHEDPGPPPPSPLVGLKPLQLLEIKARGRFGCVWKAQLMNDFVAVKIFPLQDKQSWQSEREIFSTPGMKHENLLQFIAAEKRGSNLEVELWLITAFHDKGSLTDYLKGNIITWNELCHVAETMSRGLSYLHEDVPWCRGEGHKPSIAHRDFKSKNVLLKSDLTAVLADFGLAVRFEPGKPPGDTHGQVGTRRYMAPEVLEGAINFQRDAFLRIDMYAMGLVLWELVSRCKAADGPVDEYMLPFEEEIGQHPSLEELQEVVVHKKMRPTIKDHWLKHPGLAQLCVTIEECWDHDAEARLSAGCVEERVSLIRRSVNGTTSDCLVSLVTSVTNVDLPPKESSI
Sequence of kinases (KINOMEscan panel) (Homo sapiens, UniProt Q8NI60) (Q8NI60 163-647): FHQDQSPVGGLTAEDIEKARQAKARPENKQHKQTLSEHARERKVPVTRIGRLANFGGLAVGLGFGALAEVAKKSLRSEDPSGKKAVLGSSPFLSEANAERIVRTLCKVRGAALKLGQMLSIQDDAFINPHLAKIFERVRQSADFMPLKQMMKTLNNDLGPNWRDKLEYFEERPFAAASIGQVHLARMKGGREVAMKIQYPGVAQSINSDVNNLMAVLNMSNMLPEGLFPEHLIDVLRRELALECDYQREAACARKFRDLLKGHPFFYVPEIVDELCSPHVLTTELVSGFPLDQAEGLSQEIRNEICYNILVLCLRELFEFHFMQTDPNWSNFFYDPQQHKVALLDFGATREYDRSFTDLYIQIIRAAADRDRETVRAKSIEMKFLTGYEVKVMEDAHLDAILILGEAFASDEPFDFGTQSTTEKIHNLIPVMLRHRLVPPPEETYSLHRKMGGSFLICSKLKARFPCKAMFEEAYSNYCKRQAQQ
Sequence of kinases (KINOMEscan panel) (Homo sapiens, UniProt Q96Q40) (Q96Q40 whole entry): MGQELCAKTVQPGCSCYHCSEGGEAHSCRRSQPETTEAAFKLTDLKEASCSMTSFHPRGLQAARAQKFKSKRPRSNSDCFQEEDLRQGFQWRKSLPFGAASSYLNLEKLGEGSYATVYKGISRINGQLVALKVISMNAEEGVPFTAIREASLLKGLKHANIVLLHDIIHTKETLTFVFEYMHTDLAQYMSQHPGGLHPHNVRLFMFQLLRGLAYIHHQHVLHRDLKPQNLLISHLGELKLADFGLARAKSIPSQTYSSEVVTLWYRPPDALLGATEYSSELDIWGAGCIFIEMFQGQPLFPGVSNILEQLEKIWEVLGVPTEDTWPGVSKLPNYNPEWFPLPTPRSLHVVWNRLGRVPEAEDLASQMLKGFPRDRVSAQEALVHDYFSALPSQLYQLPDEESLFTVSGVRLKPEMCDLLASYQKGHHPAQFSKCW
Sequence of kinases (KINOMEscan panel) (Homo sapiens, UniProt Q96J92) (Q96J92 whole entry): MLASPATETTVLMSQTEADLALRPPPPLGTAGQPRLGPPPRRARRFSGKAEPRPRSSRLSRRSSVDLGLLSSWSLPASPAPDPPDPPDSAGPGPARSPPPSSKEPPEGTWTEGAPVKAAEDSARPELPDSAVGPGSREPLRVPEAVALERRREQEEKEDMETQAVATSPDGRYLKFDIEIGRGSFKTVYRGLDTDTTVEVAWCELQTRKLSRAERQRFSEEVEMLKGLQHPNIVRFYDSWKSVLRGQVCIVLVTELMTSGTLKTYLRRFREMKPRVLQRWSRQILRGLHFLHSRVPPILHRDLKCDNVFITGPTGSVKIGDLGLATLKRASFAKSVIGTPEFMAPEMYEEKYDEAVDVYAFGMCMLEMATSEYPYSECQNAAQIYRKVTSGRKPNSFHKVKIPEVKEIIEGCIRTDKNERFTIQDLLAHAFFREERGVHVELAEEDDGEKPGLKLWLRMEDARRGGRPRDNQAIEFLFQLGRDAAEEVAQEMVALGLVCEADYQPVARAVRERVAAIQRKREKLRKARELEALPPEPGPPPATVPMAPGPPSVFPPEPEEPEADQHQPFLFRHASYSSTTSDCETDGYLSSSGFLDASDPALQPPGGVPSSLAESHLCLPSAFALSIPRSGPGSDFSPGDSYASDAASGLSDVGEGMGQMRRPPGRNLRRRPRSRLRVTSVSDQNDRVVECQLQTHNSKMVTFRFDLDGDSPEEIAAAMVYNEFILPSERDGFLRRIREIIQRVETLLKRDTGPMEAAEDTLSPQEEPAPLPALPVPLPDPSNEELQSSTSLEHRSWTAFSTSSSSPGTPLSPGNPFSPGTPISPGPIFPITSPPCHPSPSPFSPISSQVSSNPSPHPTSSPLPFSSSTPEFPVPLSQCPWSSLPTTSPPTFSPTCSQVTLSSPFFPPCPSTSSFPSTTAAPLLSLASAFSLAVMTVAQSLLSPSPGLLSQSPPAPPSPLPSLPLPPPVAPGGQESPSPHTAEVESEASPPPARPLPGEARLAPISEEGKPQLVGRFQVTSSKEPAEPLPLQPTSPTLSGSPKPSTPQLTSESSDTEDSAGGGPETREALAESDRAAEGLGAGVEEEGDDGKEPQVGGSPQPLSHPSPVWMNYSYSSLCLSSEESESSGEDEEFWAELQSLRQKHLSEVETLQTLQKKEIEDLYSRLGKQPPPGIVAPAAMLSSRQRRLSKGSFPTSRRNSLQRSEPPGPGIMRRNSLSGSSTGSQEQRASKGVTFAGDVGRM

| SMILES | KINOMEscan WNK4 [1] | KINOMEscan CDK15/PFTAIRE2 [2] | KINOMEscan ACVR2B [3] | KINOMEscan FRK [4] | KINOMEscan IKBKE/IKK-epsilon [5] | KINOMEscan PIP4K2B [6] | KINOMEscan HASPIN [7] | KINOMEscan COQ8A [8] | KINOMEscan PHKG1 [9] | KINOMEscan MAST1 [10] |
| --- | --- | --- | --- | --- | --- | --- | --- | --- | --- | --- |
| Cc1cccc(-c2nc(Nc3ccc4nn(C)cc4c3)c3ccccc3n2)n1 [NK167] | 0 | 0 | 0 | 0 | 0 | 0 | 4 | 5 | 5 | 0 |
| Cc1cccc(-c2nc(N(C)c3ccc4ncsc4c3)c3ccccc3n2)n1 [NK-161] | 0 | 0 | 22 | 0 | 0 | 0 | 7 | 1 | 5 | 0 |
